Drawing on PubChem BioAssay (NCI), this text covers TGI for two compounds.

Test systems include SK-MEL-28 melanoma; HOP-92 NSCLC; HOP-62 NSCLC; SN12C renal; OVCAR-5 ovarian; M14 melanoma; OVCAR-4 ovarian; HCT-116 colon; MALME-3M melanoma; OVCAR-8 ovarian.
Holding throughout (test): NCI tumour cell line growth inhibition, 48 h

SMILES strings stand for the structures.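 Assay format: 96-well plates, 48-hour exposure. TGI: concentration producing complete growth inhibition.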

As to `O=C(OC(C(=O)O)C(OC(=O)c1ccccc1)C(=O)O)c1ccccc1` (stereo not given) (tested in a mixture with another compound), the TGI was over 100 µM in the test on SK-MEL-28 melanoma; 55.9 µM with HOP-92 NSCLC; over 100 µM in the test on HOP-62 NSCLC; over 100 µM in the test on SN12C renal; over 100 µM in the test with OVCAR-5 ovarian; over 100 µM with M14 melanoma. The TGI with OVCAR-4 ovarian is over 100 µM; with HCT-116 colon, 55 µM; in the test on MALME-3M melanoma, over 100 µM; with OVCAR-8 ovarian, over 100 µM.
In the case of `CSc1nc(NC2OCC(OC(C)=O)C(OC(C)=O)C2OC(C)=O)c(N=CC=Nc2c(NC3OCC(OC(C)=O)C(OC(C)=O)C3OC(C)=O)nc(SC)n(C)c2=O)c(=O)n1C` (stereo not given), the TGI with SK-MEL-28 melanoma, with HOP-92 NSCLC, with HOP-62 NSCLC, in the test on SN12C renal, in the test on OVCAR-5 ovarian and with M14 melanoma was over 100 µM each time. In addition, the TGI in the test with OVCAR-4 ovarian, in the test on HCT-116 colon, in the test on MALME-3M melanoma and with OVCAR-8 ovarian was over 100 µM in each case.
